Where two headings read alike, the source gives them in different places.
Test system: western and northern corn root worm
Type: in vivo, corn rootworm
Details: for PERCENT OF CONTROL (3-6 damage level) / PERCENT OF CONTROL (4-6 damage level) / PERCENT OF CONTROL (5-6 damage level) / PERCENT PLANTS HAVING 3-6 DAMAGE LEVEL / PERCENT PLANTS HAVING 4-6 DAMAGE LEVEL / PERCENT PLANTS HAVING 5-6 DAMAGE LEVEL: Iowa 1-6 Scale; for Corn root worm damage (Iowa 1-6 scale), means across locations / Corn root worm damage in each Iowa class (Iowa 1-6 scale): class 1 / Corn root worm damage in each Iowa class (Iowa 1-6 scale): class 2 / Corn root worm damage in each Iowa class (Iowa 1-6 scale): class 3 / Corn root worm damage in each Iowa class (Iowa 1-6 scale): class 4 / Corn root worm damage in each Iowa class (Iowa 1-6 scale): class 5 / Corn root worm damage in each Iowa class (Iowa 1-6 scale): class 6: stage VT-R1
Experimental: Corn seeds of the same hybrid species, with and without the transgenic event, were treated with clothianidin pesticide as follows. A seed treatment formulation was prepared by mixing a measured amount of clothianidin in water as a carrier and applying the formulation for one minute at room temperature to a measured weight of corn seed in a rotostatic seed treater. The respective weights of the pesticide preparation and the corn seed were calculated to provide the desired rate of treatment of pesticide on the seed. The pesticide was mixed into sufficient water to permit efficient distribution of the formulation to all of the seeds in the batch while minimizing loss of treatment formulation due to lack of uptake of the formulation by the seeds. Treated seeds were allowed to sit uncapped for at least four hours before planting.
A field trial was run in accordance with pertinent protocols and in conformance with USDA notification requirements. The purpose of the trial was to determine the efficacy of transgenic event Cry3Bb.11231 in corn seed in combination with corn rootworm seed treatments using clothianidin.
For each growing site that was selected, the plot design included the following:
The following seed treatment combinations were used for each growing area:
All seed treatments with pesticides were carried out as described in Example 1.
For seeds having treatments numbered 3 though 7, the pesticides were applied by the methods described in Example 1. In seed treatment number 8, commercially available Force® 3G was applied to the soil in a 5″ band at the time of sowing. The levels of application are as shown and are within the ranges recommended for standard commercial practice.
Corn seeds to be tested were planted and grown at five different locations across two Midwestern states in the United States corn belt according to the protocol described above.
The determination of damage by corn rootworm was made according to the following protocol. At stage VT-R1, an evaluation of corn rootworm damage was carried out by methods that are well known in the industry, and damage by corn rootworm was reported according to the Iowa 1-6 rating system. In that system, the root systems of 10 corn plants per plot are recovered and scored using the 1-6 rating scale, where: 1=no injury or only a few minor feeding scars, 2=feeding injury evident, but no roots eaten back to 1 ½ inches of the plant, 3=at least one root eaten off to within 1 ½ inches of the plant, but never an entire node of roots destroyed, 4=one node of roots eaten back to within 1 ½ inches of the plant, 5=two nodes (circles) of roots eaten back to within 1 ½ inches of the plant, 6=three nodes (circles) of roots eaten back to within 1 ½ inches of the plant.
The combinations of clothianidin seed treatment with corn seed having a Cry3Bb.11231 transgenic event were tested for possible synergy at three levels of rootworm damage. In the first test, shown in Table 2(a), the percentage of test plants having damage levels of from 3 to 6, on the Iowa 1-6 Scale, were determined for the control and for seeds treated with the pesticide at two levels, and for seeds having the transgenic event, alone and in combination. The following formula was then used to calculate a “synergy threshold”:
(% of control Cry3Bb.11231)*(% of control clothianidin treatment)/100.
This threshold was compared against the percent of control for the treatment combinations (i.e., Cry3Bb.11231 with clothianidin @ 100 gm/100 kg and Cry3Bb.11231 with clothianidin @ 300 gm/100 kg). If the treatment combination percent of control was below the threshold, then it was concluded that there was synergy.

[1] = clothianidin seed treatment @ 100 g/100 kg seed
[2] = clothianidin seed treatment @ 300 g/100 kg seed
[3] = clothianidin seed treatment @ 400 g/100 kg seed

Compound: CN/C(=N\[N+](=O)[O-])NCc1cnc(Cl)s1 [Clothianidin, N-[(2-chloro-5-thiazoyl)methyl]-N′-methyl-N″-nitro,[C(E)]-(9Cl)-guanidine]
- PERCENT OF CONTROL (3-6 damage level) (clothianidin @ 100 gm/100 kg): 96.6%
- PERCENT OF CONTROL (4-6 damage level) (clothianidin @ 100 gm/100 kg): 86.9%
- PERCENT OF CONTROL (5-6 damage level) (clothianidin @ 100 gm/100 kg): 39.4%
- PERCENT PLANTS HAVING 3-6 DAMAGE LEVEL (clothianidin @ 100 gm/100 kg): 96.6%
- PERCENT PLANTS HAVING 4-6 DAMAGE LEVEL (clothianidin @ 100 gm/100 kg): 71.2%
- PERCENT PLANTS HAVING 5-6 DAMAGE LEVEL (clothianidin @ 100 gm/100 kg): 15.8%
- PERCENT OF CONTROL (3-6 damage level) (clothianidin @ 300 gm/100 kg): 91.5%
- PERCENT OF CONTROL (4-6 damage level) (clothianidin @ 300 gm/100 kg): 50.65%
- PERCENT OF CONTROL (5-6 damage level) (clothianidin @ 300 gm/100 kg): 23.9%
- PERCENT PLANTS HAVING 3-6 DAMAGE LEVEL (clothianidin @ 300 gm/100 kg): 91.5%
- PERCENT PLANTS HAVING 4-6 DAMAGE LEVEL (clothianidin @ 300 gm/100 kg): 41.5%
- PERCENT PLANTS HAVING 5-6 DAMAGE LEVEL (clothianidin @ 300 gm/100 kg): 9.6%
- Corn root worm damage (Iowa 1-6 scale), means across locations [1]: 3.9
- Corn root worm damage in each Iowa class (Iowa 1-6 scale): class 1 [1]: 0
- Corn root worm damage in each Iowa class (Iowa 1-6 scale): class 2 [1]: 6
- Corn root worm damage in each Iowa class (Iowa 1-6 scale): class 3 [1]: 45
- Corn root worm damage in each Iowa class (Iowa 1-6 scale): class 4 [1]: 98
- Corn root worm damage in each Iowa class (Iowa 1-6 scale): class 5 [1]: 23
- Corn root worm damage in each Iowa class (Iowa 1-6 scale): class 6 [1]: 5
- Corn root worm damage (Iowa 1-6 scale), means across locations [2]: 3.4
- Corn root worm damage in each Iowa class (Iowa 1-6 scale): class 1 [2]: 0
- Corn root worm damage in each Iowa class (Iowa 1-6 scale): class 2 [2]: 16
- Corn root worm damage in each Iowa class (Iowa 1-6 scale): class 3 [2]: 94
- Corn root worm damage in each Iowa class (Iowa 1-6 scale): class 4 [2]: 60
- Corn root worm damage in each Iowa class (Iowa 1-6 scale): class 5 [2]: 16
- Corn root worm damage in each Iowa class (Iowa 1-6 scale): class 6 [2]: 2
- Corn root worm damage (Iowa 1-6 scale), means across locations [3]: 3.0
- Corn root worm damage in each Iowa class (Iowa 1-6 scale): class 1 [3]: 1
- Corn root worm damage in each Iowa class (Iowa 1-6 scale): class 2 [3]: 34
- Corn root worm damage in each Iowa class (Iowa 1-6 scale): class 3 [3]: 113
- Corn root worm damage in each Iowa class (Iowa 1-6 scale): class 4 [3]: 37
- Corn root worm damage in each Iowa class (Iowa 1-6 scale): class 5 [3]: 1
- Corn root worm damage in each Iowa class (Iowa 1-6 scale): class 6 [3]: 0
- effectiveness against corn rootworm damage (in words) (seed treatment alone, all levels tested (100, 300, 400 gm/100 kg)): effective against corn rootworm damage at all levels tested
